Patent US12590106B2, “Spiromacrocyclic orexin 2 receptor agonists” (H. Lundbeck A/S, priority 2023, dated 2026)

Target: T1, human Ox2R (Homo sapiens, UniProt O43614)
T1 construct: The gene encoding hOx2R was subcloned into the expression plasmid pcDNA5/FRT/TO; expressed in transfected cells; host or cells: CHO Flp-In cells (pcDNA5/FRT/TO with pOG44 Flp recombinase vector, hygromycin B selection)
T1 sequence (O43614 1-444): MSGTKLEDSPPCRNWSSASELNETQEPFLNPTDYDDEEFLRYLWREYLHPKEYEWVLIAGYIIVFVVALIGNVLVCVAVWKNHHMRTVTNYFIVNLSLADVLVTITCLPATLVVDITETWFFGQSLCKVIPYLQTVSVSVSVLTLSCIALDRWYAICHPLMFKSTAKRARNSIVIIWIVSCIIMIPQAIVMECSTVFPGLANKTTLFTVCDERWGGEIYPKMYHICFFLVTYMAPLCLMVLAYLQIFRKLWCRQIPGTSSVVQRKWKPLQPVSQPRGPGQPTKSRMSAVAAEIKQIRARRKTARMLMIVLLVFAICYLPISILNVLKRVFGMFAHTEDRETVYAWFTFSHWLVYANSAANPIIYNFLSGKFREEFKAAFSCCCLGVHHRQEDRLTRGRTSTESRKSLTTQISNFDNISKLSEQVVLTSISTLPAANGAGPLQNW
Assay: Measurement of OX2R agonist activity (cell-based calcium release assay)
Details: hOx2R-CHO Flp-In cells, n≥2 tests; for EC50: intracellular calcium, read-out: EC50; for Emax: read-out: Emax (%)
Description: Measurement of OX2R Agonist Activity
The Ox2R has a broad signaling profile and couple to a range of different Gα-proteins. The cell-based calcium release assay is primarily assessing signaling through the Gαq signaling pathway, which promotes calcium mobilization via inositol triphosphate production upon activation of Ox2R.
A CHO Flp-In cell-line stably expressing the human Ox2R (hOx2R-CHO Flp-In) was established as follows: The gene encoding hOx2R was subcloned into the expression plasmid pcDNA5/FRT/TO and then transfected into CHO Flp-In cells together with the Flp recombinase vector, pOG44. Cells were cultured in growth medium: Ham's F12 (Gibco), 10% fetal bovine serum (Gibco) and 100 U/mL penicillin-streptomycin (Gibco) supplemented with hygromycin B (Thermo Fisher Scientific) as selection marker at 37° C. in the presence of 5% CO2.
To prepare the hOx2R-CHO FlpIn cells for calcium release assay, the cells were suspended in growth medium and seeded in black, clear-bottomed 384-well plates (Corning) at 10,000 cells/well. The plated cells were grown overnight at 37° C. and 5% CO2. The following day, the media was removed, and the cells were incubated with assay buffer (HBSS with 20 mM HEPES, pH 7.4) containing 2.5 mM probenecid (Thermo Fisher Scientific), 10 mM CaCl2, 0.1% pluronic F68 (Gibco) and 1× calcium-4 dye (Molecular Devices) for 1 h at 37° C. and 5% CO2. After incubation, cells were allowed to equilibrate at room temperature for 15 minutes and then loaded into FDSS7000Ex system (Hamamatsu Photonics) together with a plate containing test compounds serially diluted in assay buffer. Cells were stimulated with test compounds (online injection) and the agonist activity was determined as an increase in intracellular calcium concentration measured from the ratio of fluorescence emission at 542 nm by excitation at 480 nm. The agonist response for each applied concentration was assessed as the ratio: maximum fluorescence/average pre-stimulated fluorescence and was normalized to responses from assay buffer alone (0% response) and 10 μM Danavorexton (100% response). EC50 and Emax values were calculated from concentration-response curves by using Genedata Screener software.

[1] = normalized to assay buffer (0%) and 10 μM Danavorexton (100%)

Compound	EC50 [nM]	Emax [1] [%]	Emax (%) [1] [%]
C[C@H]1Oc2c(F)cccc2-c2cc(ccc2F)C[C@@]2(CC[C@H](NS(C)(=O)=O)C2)c2nc1co2 [Example 85, N-[(1′S,9R,14R)-6,19-difluoro-9-methyl-spiro[8,12-dioxa-21-azatetracyclo[14.3.1.110,13.02,7]henicosa-1(19),2(7),3,5,10,13(21),16(20),17-octaene-14,3′-cyclopentane]-1′-yl]methanesulfonamide]	2.3	100	–
CS(=O)(=O)N[C@H]1CC[C@@]2(Cc3ccc(C(F)F)c(c3)-c3cccc(F)c3OCc3coc2n3)C1 [Example 103, N-[(1′S,14R)-19-(difluoromethyl)-6-fluoro-spiro[8,12-dioxa-21-azatetracyclo[14.3.1.110,13.02,7]henicosa-1(19),2,4,6,10,13(21),16(20),17-octaene-14,3′-cyclopentane]-1′-yl]methanesulfonamide]	3.3	99	–
CS(=O)(=O)N[C@H]1CC[C@]2(CC1)Cc1cc(c(F)cc1F)-c1cccc(F)c1OCc1coc2n1 [Example 96, trans-N-(6,17,19-trifluorospiro[8,12-dioxa-21-azatetracyclo[14.3.1.110,13.02,7]henicosa-1(19),2,4,6,10,13(21),16(20),17-octaene-14,4′-cyclohexane]-1′-yl)methanesulfonamide]	0.23	98	–
CS(=O)(=O)N[C@H]1CC[C@@]2(Cc3ccc(F)c(c3)-c3cccc(Cl)c3OCc3coc2n3)C1 [Example 20, N-[(1′S,14R)-6-chloro-19-fluoro-spiro[8,12-dioxa-21-azatetracyclo[14.3.1.110,13.02,7]henicosa-1(19),2,4,6,10,13(21),16(20),17-octaene-14,3′-cyclopentane]-1′-yl]methanesulfonamide]	0.33	97	–
N-[(3′R,14S)-6,17,19-trifluorospiro[8,12-dioxa-21-azatetracyclo[14.3.1.110,13.02,7]henicosa-1(19),2,4,6,10,13(21),16(20),17-octaene-1′,5′-tetrahydrofuran′-3′-yl]methanesulfonamide or N-[(3′S,14R)-6,17,19-trifluorospiro[8,12-dioxa-21-azatetracyclo[14.3.1.110,13.02,7]henicosa-1(19),2,4,6,10,13(21),16(20),17-octaene-1′,5′-tetrahydrofuran′-3′-yl]methanesulfonamide [Example 109]	1.6	–	99

The remaining compounds from weak to strong by EC50, led by results:

EC50 [nM]	Emax [1] [%]	Compound	Emax (%) [1] [%]
10	98	CS(=O)(=O)N[C@H]1CC[C@@]2(Cc3cccc(c3)-c3cccnc3OCc3coc2n3)C1 [Example 9, N-[(1′S,14R)-spiro[8,12-dioxa-6,21-diazatetracyclo[14.3.1.110,13.02,7]henicosa-1(20),2,4,6,10,13(21),16,18-octaene-14,3′-cyclopentane]-1′-yl]methanesulfonamide]	–
1.1	110	CS(=O)(=O)N[C@H]1CC[C@@]2(Cc3ccc(F)c(c3)-c3ccccc3OCc3ccnc2n3)C1 [Example 90, N-[(1′S,15R)-20-fluorospiro[8-oxa-13,22-diazatetracyclo[15.3.1.110,14.02,7]docosa-1(20),2,4,6,10,12,14(22),17(21),18-nonaene-15,3′-cyclopentane]-1′-yl]methanesulfonamide]	–
0.65	100	CS(=O)(=O)N[C@H]1CC[C@@]2(Cc3cc(ccc3F)-c3c(F)ccc(F)c3OCc3coc2n3)C1 [Example 27, N-[(1′S,14R)-3,6,17-trifluorospiro[8,12-dioxa-21-azatetracyclo[14.3.1.110,13.02,7]henicosa-1(20),2,4,6,10,13(21),16,18-octaene-14,3′-cyclopentane]-1′-yl]methanesulfonamide]	–
0.28	98	CS(=O)(=O)N[C@H]1CC[C@@]2(Cc3cc(c(F)cc3Cl)-c3cccc(F)c3OCc3coc2n3)C1 [Example 32, N-[(1′S,14R)-17-chloro-6,19-difluoro-spiro[8,12-dioxa-21-azatetracyclo[14.3.1.110,13.02,7]henicosa-1(19),2,4,6,10,13(21),16(20),17-octaene-14,3′-cyclopentane]-1′-yl]methanesulfonamide]	–
